Test results reported in patent US20130302282A1, “Inhibitors of Hepatitis C Virus” (priority 2010, published 2013).
Read-outs that look alike come from different tables or passages of the source.

How the values were obtained:
HCV 2a = HCV 2a replicon assay; type: cell-based; conditions: Hepatitis C virus; class symbol; cell marked (HCV genotype 2a replicon); read-out: Inhibition of HCV genotype 2a replicon
Method: (§1) Compounds of the invention can inhibit multiple genotypes of HCV selected but not limited to 1a, 1h, 2a, 3a, and 4a. The EC50s are measured in the corresponding replicon assays that are similar to HCV 1b replicon assay as described above.
(§2) The biological activity against HCV 1b, 1a, or 2a is indicated as being *, **, ***, or ****, which corresponds to EC50 ranges of EC50>1000 nM, 100 nM<EC50≦1000 nM, 10 nM<EC50≦100 nM, or EC50≦10 nM, respectively. The biological activity against HCV NS5B C316Y or S365A mutant is indicated as being […], which corresponds to EC50 ranges of EC50>1000 nM, 200 nM<EC50≦1000 nM, […], respectively.

[1] = test system: 1b_Huh-Luc/Neo-ET cell line (bicistronic genotype 1b replicon in Huh 7 cells); assay: HCV 1b replicon assay, luciferase readout; type: cell-based, HCV genotype 1b; conditions: Hepatitis C virus
Outline: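 Huh 7 cells persistently carrying a bicistronic genotype 1b luciferase replicon, treated with compound in triplicate the day after plating and incubated 72 h. Luciferase activity measured by Bright-Glo and expressed as percent of untreated control; EC50 from four-parameter fit, repeated several times.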

HCV NS5B S365A mutant = target: T1, HCV NS5B S365A mutant (Hepatitis C virus genotype 1b, UniProt Q9WMX2, S2784A); assay: Activity against HCV NS5B S365A mutant; type: cell-based; conditions: for Inhibition of HCV NS5B S3865A mutant: class symbol
T1 construct: HCV NS5B C316Y or S365A mutant as indicated; expressed in transfected cells
Method: as §2

HCV NS5B C316Y mutant = target: T2, HCV NS5B C316Y mutant (Hepatitis C virus genotype 1b, UniProt Q9WMX2, C2735Y); assay: Activity against HCV NS5B C316Y mutant; type: cell-based; conditions: class symbol; C316Y mutant
T2 construct: HCV NS5B C316Y or S365A mutant as indicated; expressed in transfected cells
Method: as §2

HCV 1a = HCV 1a replicon assay; type: cell-based; conditions: Hepatitis C virus; class symbol; cell marked (HCV genotype 1a replicon); read-out: Inhibition of HCV genotype 1a replicon
Method: as §1, §2

[2] = Huh-7, 1b_Huh-Luc/Neo-ET cell line, read-out: EC50, half-maximal inhibition of HCV 1b replication
[3] = Huh-7, class symbol, HCV genotype 1b replicon, read-out: Inhibition of HCV genotype 1b replicon
[4] = Huh-7, numeric value, HCV genotype 1b replicon, read-out: Inhibition of HCV genotype 1b replicon (EC50)

T2 sequence (Q9WMX2 2420-3010 C2735Y): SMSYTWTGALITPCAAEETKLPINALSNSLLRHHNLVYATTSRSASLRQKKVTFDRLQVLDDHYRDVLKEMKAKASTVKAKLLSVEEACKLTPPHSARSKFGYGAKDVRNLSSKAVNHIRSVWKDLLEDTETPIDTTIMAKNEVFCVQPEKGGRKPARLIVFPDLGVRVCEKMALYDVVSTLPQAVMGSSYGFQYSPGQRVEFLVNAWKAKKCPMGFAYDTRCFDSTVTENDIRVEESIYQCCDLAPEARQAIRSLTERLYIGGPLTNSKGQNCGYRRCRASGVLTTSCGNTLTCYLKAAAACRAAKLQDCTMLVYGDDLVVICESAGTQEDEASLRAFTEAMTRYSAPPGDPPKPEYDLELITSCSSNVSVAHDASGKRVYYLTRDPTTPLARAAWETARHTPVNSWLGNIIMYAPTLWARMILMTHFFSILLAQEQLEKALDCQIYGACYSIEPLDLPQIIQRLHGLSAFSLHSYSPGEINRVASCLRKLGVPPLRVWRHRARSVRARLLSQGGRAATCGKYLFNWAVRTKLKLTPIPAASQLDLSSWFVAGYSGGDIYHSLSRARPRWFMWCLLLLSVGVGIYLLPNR
T1 sequence (Q9WMX2 2420-3010 S2784A): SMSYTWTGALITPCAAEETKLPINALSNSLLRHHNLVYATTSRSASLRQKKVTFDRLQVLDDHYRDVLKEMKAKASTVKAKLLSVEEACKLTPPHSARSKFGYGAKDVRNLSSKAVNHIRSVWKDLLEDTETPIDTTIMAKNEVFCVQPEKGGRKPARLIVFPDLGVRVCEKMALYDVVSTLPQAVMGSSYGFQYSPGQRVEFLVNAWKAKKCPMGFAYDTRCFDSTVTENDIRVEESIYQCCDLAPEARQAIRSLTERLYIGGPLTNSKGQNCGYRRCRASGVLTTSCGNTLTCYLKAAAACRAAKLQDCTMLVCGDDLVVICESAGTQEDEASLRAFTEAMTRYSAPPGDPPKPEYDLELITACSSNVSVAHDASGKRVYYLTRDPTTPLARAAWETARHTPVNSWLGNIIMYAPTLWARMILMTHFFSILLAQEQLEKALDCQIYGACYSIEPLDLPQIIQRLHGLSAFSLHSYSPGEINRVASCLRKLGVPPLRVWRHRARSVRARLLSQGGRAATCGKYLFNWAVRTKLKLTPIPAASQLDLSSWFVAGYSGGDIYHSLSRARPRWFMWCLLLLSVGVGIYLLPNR

SMILES	EC50 (HCV 2a) [nM]	EC50 [1, 2] [nM]	also measured
CCC1CCCN(S(C)(=O)=O)c2cc3oc(-c4ccc(F)cc4)c(C(=O)NC)c3cc21 (stereo not shown) [Compound B63]	10 to 100	10 to 100	–
CNC(=O)c1c(-c2ccc(F)cc2)oc2cc3c(cc12)C(C)CCN3S(C)(=O)=O (stereo not shown) [Compound B10]	100 to 1000	–	–
CS(=O)(=O)N1CCCCc2cc3c(C4=NCCN4)c(-c4ccc(F)cc4)oc3cc21 [Compound B66]	> 1000	–	–
C=CC1CCCN(S(C)(=O)=O)c2cc3oc(-c4ccc(F)cc4)c(C(=O)NC)c3cc21 (stereo not shown) [Compound B60]	10 to 100	10 to 100	–
CNC(=O)c1c(-c2ccc(F)cc2)oc2cc3c(cc12)[C@H](C)n1nncc1CN3S(C)(=O)=O (single isomer, unassigned) [Compound B169]	–	≤ 10	EC50 [1, 3]: < 10 nM; Inhibition of HCV NS5B S3865A mutant (HCV NS5B S365A mutant): †††; Inhibition of HCV N55B C316Y mutant (HCV NS5B C316Y mutant): †††
CNC(=O)c1c(-c2ccc(Oc3ccc(F)cc3)cc2)oc2cc3c(cc12)[C@H](C)n1nncc1CN3S(C)(=O)=O (single isomer, unassigned) [Compound B163]	–	≤ 10	EC50 [1, 3]: < 10 nM; Inhibition of HCV NS5B S3865A mutant (HCV NS5B S365A mutant): †††; Inhibition of HCV N55B C316Y mutant (HCV NS5B C316Y mutant): †††
CNC(=O)c1c(-c2ccc(Oc3ccc(F)cc3)cc2)oc2cc3c(cc12)[C@H](C)OCCN3S(C)(=O)=O [Compound B118]	–	≤ 10	EC50 [1, 4]: 3.1 nM; Inhibition of HCV NS5B S3865A mutant (HCV NS5B S365A mutant): †††; Inhibition of HCV N55B C316Y mutant (HCV NS5B C316Y mutant): †††
C=C1CCCN(S(C)(=O)=O)c2cn3nc(-c4ccc(F)cc4)c(C(=O)NC)c3cc21 [Compound B68]	> 1000	–	–
C=C1CCCN(S(C)(=O)=O)c2cc3oc(-c4ccc(F)cc4)c(C(=O)NC)c3cc21 [Compound B61]	> 1000	–	–
CNC(=O)c1c(-c2ccc(F)cc2)oc2cc3c(cc12)C(C)=CCCN3S(C)(=O)=O [Compound B62]	> 1000	–	–
CNC(=O)c1c(-c2ccc(F)cc2)oc2cc3c(cc12)C(=O)C(C)(C)CCN3S(C)(=O)=O [Compound B100]	10 to 100	10 to 100	–
CNC(=O)c1c(-c2ccc(Oc3ccc(F)cc3)cc2)oc2cc3c(cc12)[C@H](C)CCCN3S(C)(=O)=O (single isomer, unassigned) [Compound B85]	–	≤ 10	EC50 [1, 4]: 3 nM; Inhibition of HCV NS5B S3865A mutant (HCV NS5B S365A mutant): †††; Inhibition of HCV N55B C316Y mutant (HCV NS5B C316Y mutant): †††
CC1OCCN(S(C)(=O)=O)c2cc3oc(-c4ccc(F)cc4)c(-c4ncc[nH]4)c3cc21 (stereo not shown) [Compound B197]	–	≤ 10	EC50 [1, 3]: < 10 nM; EC50 (HCV NS5B S365A mutant): 200 to 1000 nM; Inhibition of HCV N55B C316Y mutant (HCV NS5B C316Y mutant): †††
CNC(=O)c1c(-c2ccc(F)cc2)nn2cc3c(cc12)OCCCN3S(C)(=O)=O [Compound B70]	> 1000	–	–
CNC(=O)c1c(-c2ccc(Oc3cccc(Cl)c3)cc2)nn2cc3c(cc12)C(C)CCCN3S(C)(=O)=O (stereo not shown) [Compound B98]	100 to 1000	–	–
CNC(=O)c1c(-c2ccc(F)cc2)oc2cc3c(cc12)[C@H](C)O[C@H](CS(C)(=O)=O)CN3S(C)(=O)=O [Compound B214]	–	–	EC50 [1, 3]: < 10 nM; Inhibition of HCV NS5B S3865A mutant (HCV NS5B S365A mutant): †††; Inhibition of HCV N55B C316Y mutant (HCV NS5B C316Y mutant): †††
CNC(=O)c1c(-c2ccc(F)cc2)oc2cc3c(cc12)[C@H](C)NC(=O)CN3S(C)(=O)=O (single isomer, unassigned) [Compound B208]	–	≤ 10	EC50 [1, 3]: < 10 nM; Inhibition of HCV NS5B S3865A mutant (HCV NS5B S365A mutant): †††; Inhibition of HCV N55B C316Y mutant (HCV NS5B C316Y mutant): †††
[2H]C([2H])([2H])NC(=O)c1c(-c2ccc(Oc3ccc(F)cc3)cc2)oc2cc3c(cc12)C(C)OCCN3S(C)(=O)=O (stereo not shown) [Compound B119]	–	10 to 100	EC50 (HCV 1a): 10 to 100 nM
[2H]C([2H])([2H])NC(=O)c1c(-c2ccc(F)cc2)oc2cc3c(cc12)CCCCN3S(C)(=O)=O [Compound B112]	–	10 to 100	EC50 (HCV 1a): 10 to 100 nM
CNC(=O)c1c(-c2ccc(F)cc2)oc2cc3c(cc12)C(C)N(CCS(C)(=O)=O)CCN3S(C)(=O)=O (stereo not shown) [Compound B156]	–	10 to 100	EC50 [1, 3]: 10 to 100 nM; Inhibition of HCV NS5B S3865A mutant (HCV NS5B S365A mutant): †††; Inhibition of HCV N55B C316Y mutant (HCV NS5B C316Y mutant): †††
CNC(=O)c1c(-c2ccc(Oc3ccc(F)cc3)cc2)oc2cc3c(cc12)C(C)N(C)CCN3S(C)(=O)=O (stereo not shown) [Compound B151]	–	10 to 100	EC50 (HCV 1a): 10 to 100 nM
CNC(=O)c1c(-c2ccc(F)cc2)nn2cc3c(cc12)C(O)CCCN3S(C)(=O)=O (stereo not shown) [Compound B73]	> 1000	–	–

SMILES	EC50 (HCV 2a) [nM]	EC50 [1, 2] [nM]	also measured
CNC(=O)c1c(-c2ccc(F)cc2)oc2cc3c(cc12)C(=O)C(C)CCN3S(C)(=O)=O (stereo not shown) [Compound B77]	100 to 1000	–	–
CNC(=O)c1c(-c2ccc(F)cc2)nn2cc3c(cc12)C=CCCN3S(C)(=O)=O [Compound B74]	> 1000	–	–
CNC(=O)c1c(-c2ccc(F)cc2)oc2cc3c(cc12)C(=O)N(C)CCN3S(C)(=O)=O [Compound B106]	–	10 to 100	EC50 (HCV 1a): 10 to 100 nM
[2H]C([2H])([2H])NC(=O)c1c(-c2ccc(F)cc2)oc2cc3c(cc12)CCCCCN3S(C)(=O)=O [Compound B113]	–	10 to 100	EC50 (HCV 1a): 10 to 100 nM
CNC(=O)c1c(-c2ccc(F)cc2)oc2cc3c(cc12)C(O)C(C)CCN3S(C)(=O)=O (stereo not shown) [Compound B78]	100 to 1000	–	–
CNC(=O)c1c(-c2ccc(F)cc2)oc2cc3c(cc12)C(C)N(CC(=O)N(C)C)CCN3S(C)(=O)=O (stereo not shown) [Compound B150]	–	10 to 100	EC50 (HCV 1a): 10 to 100 nM
CNC(=O)c1c(-c2ccc(F)cc2)oc2cc3c(cc12)C(C)N(CCCO)CCN3S(C)(=O)=O (stereo not shown) [Compound B154]	–	10 to 100	EC50 (HCV 1a): 10 to 100 nM
CNC(=O)c1c(-c2ccc(Oc3ccc(F)cc3)cc2)nn2cc3c(cc12)C(C)CCCN3S(C)(=O)=O (stereo not shown) [Compound B76]	100 to 1000	–	–
CNC(=O)c1c(-c2ccc(F)cc2)oc2cc3c(cc12)C(OC)CCCN3S(C)(=O)=O (stereo not shown) [Compound B71]	10 to 100	10 to 100	–
CNC(=O)c1c(-c2ccc(F)cc2)oc2cc3c(cc12)C(C)N(CC1CC1)CCN3S(C)(=O)=O (stereo not shown) [Compound B108]	–	10 to 100	EC50 (HCV 1a): 10 to 100 nM
CNC(=O)c1c(-c2ccc(F)cc2)nn2cc3c(cc12)C(C)=CCCN3S(C)(=O)=O [Compound B72]	> 1000	–	–
CNC(=O)c1c(-c2ccc(F)cc2)oc2cc3c(cc12)C=C(C)CCN3S(C)(=O)=O [Compound B79]	> 1000	–	–
CS(=O)(=O)N1CCCCc2cc3c(-c4nnn[nH]4)c(-c4ccc(F)cc4)oc3cc21 [Compound B65]	> 1000	–	–
CNC(=O)c1c(-c2ccc(F)cc2)oc2cc3c(cc12)C(C)C(C)(C)CCN3S(C)(=O)=O (stereo not shown) [Compound B115]	–	10 to 100	EC50 (HCV 1a): 10 to 100 nM
CNC(=O)c1c(-c2ccc(F)cc2)oc2cc3c(cc12)C(C)N(C(=O)OCc1ccccc1)CCN3S(C)(=O)=O (stereo not shown) [Compound B111]	–	10 to 100	EC50 (HCV 1a): 10 to 100 nM
CS(=O)(=O)N1CCCCc2cc3c(C(=O)NC#N)c(-c4ccc(F)cc4)oc3cc21 [Compound B64]	> 1000	–	–
CNC(=O)c1c(-c2ccc(F)cc2)nn2cc3c(cc12)C(=O)CCCN3S(C)(=O)=O [Compound B69]	> 1000	–	–
C=C1c2cc3c(C(=O)NC)c(-c4ccc(F)cc4)oc3cc2N(S(C)(=O)=O)CCC1(C)C [Compound B101]	10 to 100	10 to 100	–
CNC(=O)c1c(-c2ccc(Oc3ccc(Cl)cc3)cc2)nn2cc3c(cc12)C(C)CCCN3S(C)(=O)=O (stereo not shown) [Compound B99]	100 to 1000	–	–
CNC(=O)c1c(-c2ccc(F)cc2)oc2cc3c(cc12)C(C)=CCN3S(C)(=O)=O [Compound B11]	> 1000	–	–
CNC(=O)c1c(-c2ccc(F)cc2)oc2cc3c(cc12)C(C)N(CCc1ccc(F)cc1)CCN3S(C)(=O)=O (stereo not shown) [Compound B155]	–	10 to 100	EC50 (HCV 1a): 10 to 100 nM
